From patent US12643910B2, “Substituted pyrazolo[3,4-b]pyridines as ectonucleotide pyrophosphatase/phosphodiesterase 1 (ENPP1) modulators” (SANFORD BURNHAM PREBYS MEDICAL DISCOVERY INSTITUTE, priority 2019, dated 2026)

Key:
human ENPP1 = biological target: T1, human ENPP1 (Homo sapiens, UniProt P22413); experiment: ENPP1 assay with ATP substrate (Transcreener AMP2/GMP2 TR-FRET); format: biochemical; details: 1 hour at room temperature
T1 construct: made in house
T1 sequence (P22413 1-925): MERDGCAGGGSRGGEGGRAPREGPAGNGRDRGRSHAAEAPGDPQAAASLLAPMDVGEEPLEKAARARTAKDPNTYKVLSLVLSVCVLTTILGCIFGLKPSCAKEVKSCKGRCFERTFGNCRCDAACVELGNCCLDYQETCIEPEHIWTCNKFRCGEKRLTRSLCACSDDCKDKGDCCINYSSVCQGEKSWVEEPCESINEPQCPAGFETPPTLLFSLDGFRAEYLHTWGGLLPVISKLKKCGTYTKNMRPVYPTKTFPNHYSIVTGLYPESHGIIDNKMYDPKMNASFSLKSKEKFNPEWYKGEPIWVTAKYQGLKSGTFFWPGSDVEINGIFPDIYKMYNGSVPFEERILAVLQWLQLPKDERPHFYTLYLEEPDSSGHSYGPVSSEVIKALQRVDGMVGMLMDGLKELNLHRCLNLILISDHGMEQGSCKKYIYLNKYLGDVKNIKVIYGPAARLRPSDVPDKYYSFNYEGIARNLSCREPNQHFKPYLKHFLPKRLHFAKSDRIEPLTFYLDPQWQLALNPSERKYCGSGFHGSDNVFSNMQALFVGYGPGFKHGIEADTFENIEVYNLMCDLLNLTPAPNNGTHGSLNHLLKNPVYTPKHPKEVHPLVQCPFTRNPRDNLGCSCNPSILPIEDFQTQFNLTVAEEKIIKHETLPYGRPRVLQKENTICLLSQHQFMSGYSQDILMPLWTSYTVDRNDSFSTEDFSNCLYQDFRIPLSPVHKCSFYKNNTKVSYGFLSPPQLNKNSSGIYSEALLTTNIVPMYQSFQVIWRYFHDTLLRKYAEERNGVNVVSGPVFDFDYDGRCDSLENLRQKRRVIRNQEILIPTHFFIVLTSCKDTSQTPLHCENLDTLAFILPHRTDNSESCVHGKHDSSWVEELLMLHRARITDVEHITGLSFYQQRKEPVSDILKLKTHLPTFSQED
How it was run: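 Reaction ran 1 h at room temperature in pH 7.5 Tris with MgCl2, TCEP, Tween 20 and 1% DMSO. ATP was added as a 300 nM stock and enzyme as an 8.5 μM stock. After EDTA stop, AMP was read by TR-FRET tracer displacement. Percent inhibition used enzyme/no-enzyme controls; IC50 was fitted with a variable slope.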

ENPP3 = biological target: T2, ENPP3 (Homo sapiens, UniProt O14638); experiment: ENPP3 Km ATP assay; format: biochemical; details: ATP at Km
T2 sequence (O14638 1-875): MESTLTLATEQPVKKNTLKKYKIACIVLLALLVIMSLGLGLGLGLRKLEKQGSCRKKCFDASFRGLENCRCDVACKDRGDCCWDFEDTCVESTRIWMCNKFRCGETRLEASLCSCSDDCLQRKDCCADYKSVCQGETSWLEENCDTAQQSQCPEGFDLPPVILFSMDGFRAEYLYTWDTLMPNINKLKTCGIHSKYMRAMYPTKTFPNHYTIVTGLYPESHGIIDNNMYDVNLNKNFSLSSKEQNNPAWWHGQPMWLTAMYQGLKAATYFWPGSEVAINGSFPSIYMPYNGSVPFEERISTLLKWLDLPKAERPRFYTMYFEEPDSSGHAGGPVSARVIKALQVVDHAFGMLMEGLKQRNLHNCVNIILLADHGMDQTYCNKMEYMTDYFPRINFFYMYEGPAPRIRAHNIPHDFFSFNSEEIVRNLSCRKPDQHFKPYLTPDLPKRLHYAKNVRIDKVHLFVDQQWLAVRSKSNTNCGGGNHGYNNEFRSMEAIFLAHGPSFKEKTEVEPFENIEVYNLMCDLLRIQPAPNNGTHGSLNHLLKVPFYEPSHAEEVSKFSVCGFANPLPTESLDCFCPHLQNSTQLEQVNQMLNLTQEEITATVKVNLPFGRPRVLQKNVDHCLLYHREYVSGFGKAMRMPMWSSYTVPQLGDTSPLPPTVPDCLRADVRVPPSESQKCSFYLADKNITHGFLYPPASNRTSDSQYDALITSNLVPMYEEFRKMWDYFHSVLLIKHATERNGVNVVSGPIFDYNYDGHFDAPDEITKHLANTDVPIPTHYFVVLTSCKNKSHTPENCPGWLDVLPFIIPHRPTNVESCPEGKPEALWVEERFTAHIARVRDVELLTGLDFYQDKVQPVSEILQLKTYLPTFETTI

Structure (SMILES): NS(=O)(=O)c1ccc(CNc2nc(NC3CCCCC3)nc3scc(-c4ccccc4)c23)cc1 [Example 1.40, 4-(((2-(Cyclohexylamino)-5-phenylthieno[2,3-d]pyrimidin-4-yl)amino)methyl)-benzenesulfonamide]
- IC50 (human ENPP1): 0.1 to 1 µM
- IC50 (ENPP3): 1 to 20 µM

Structure (SMILES): NS(=O)(=O)c1ccc(CNc2nc(NCc3ccccc3)nc3scc(-c4ccccc4)c23)cc1 [Example 1.41, 4-(((2-(Benzylamino)-5-phenylthieno[2,3-d]pyrimidin-4-yl)amino)methyl)-benzenesulfonamide]
- IC50 (human ENPP1): < 0.1 µM
- IC50 (ENPP3): 0.1 to 1 µM

Structure (SMILES): CNc1nc(NCc2ccc(S(N)(=O)=O)cc2)c2c(-c3ccccc3)csc2n1 [Example 1.42, 4-(((2-(Methylamino)-5-phenylthieno[2,3-d]pyrimidin-4-yl)amino)methyl)-benzenesulfonamide]
- IC50 (human ENPP1): < 0.1 µM
- IC50 (ENPP3): < 0.1 µM

Structure (SMILES): CN(C)c1nc(NCc2ccc(S(N)(=O)=O)cc2)c2c(-c3ccccc3)csc2n1 [Example 1.43, 4-(((2-(Dimethylamino)-5-phenylthieno[2,3-d]pyrimidin-4-yl)amino)methyl)-benzenesulfonamide]
- IC50 (human ENPP1): < 0.1 µM
- IC50 (ENPP3): 0.1 to 1 µM

Structure (SMILES): Cc1nc(NCc2ccc(S(N)(=O)=O)cc2)c2c(-c3ccccc3)csc2n1 [Example 1.44, 4-(((2-Methyl-5-phenylthieno[2,3-d]pyrimidin-4-yl)amino)methyl)benzenesulfonamide]
- IC50 (human ENPP1): < 0.1 µM
- IC50 (ENPP3): < 0.1 µM

Structure (SMILES): Cc1nc(NCc2ccc(S(N)(=O)=O)s2)c2c(-c3ccccc3)csc2n1 [Example 1.45, 5-(((2-Methyl-5-phenylthieno[2,3-d]pyrimidin-4-yl)amino)methyl)thiophene-2-sulfonamide]
- IC50 (human ENPP1): > 20 µM
- IC50 (ENPP3): > 20 µM

Structure (SMILES): NS(=O)(=O)c1ccc(CNc2ncnc3scc(-c4ccccc4)c23)cc1 [Example 1.46, 4-(((5-Phenylthieno[2,3-d]pyrimidin-4-yl)amino)methyl)benzenesulfonamide]
- IC50 (human ENPP1): < 0.1 µM
- IC50 (ENPP3): < 0.1 µM

Structure (SMILES): NS(=O)(=O)c1ccc(CNc2cc(-c3ccccn3)nc3scc(-c4ccccc4)c23)cc1 [Example 1.47, 4-(((3-Phenyl-6-(pyridin-2-yl)thieno[2,3-b]pyridin-4-yl)amino)methyl)benzenesulfonamide]
- IC50 (human ENPP1): < 0.1 µM
- IC50 (ENPP3): 1 to 20 µM

Structure (SMILES): NS(=O)(=O)c1ccc(CNc2ncnc3scc(Br)c23)cc1 [Example 1.49, 4-((5-Bromothieno[2,3-d]pyrimidin-4-yl)aminomethyl)benzenesulfonamide]
- IC50 (human ENPP1): 0.1 to 1 µM
- IC50 (ENPP3): < 0.1 µM

Structure (SMILES): NS(=O)(=O)c1ccc(CNc2nc(NCCO)nc3scc(-c4ccccc4)c23)cc1 [Example 1.50, 4-((2-(2-Hydroxyethylamino)-5-phenylthieno[2,3-d]pyrimidin-4-yl)aminomethyl)-benzenesulfonamide]
- IC50 (human ENPP1): < 0.1 µM
- IC50 (ENPP3): < 0.1 µM

Structure (SMILES): NS(=O)(=O)c1ccc(CNc2nc(NCCCO)nc3scc(-c4ccccc4)c23)cc1 [Example 1.51, 4-((2-(3-Hydroxypropyl)amino-5-phenylthieno[2,3-d]pyrimidin-4-yl)aminomethyl)-benzenesulfonamide]
- IC50 (human ENPP1): < 0.1 µM
- IC50 (ENPP3): < 0.1 µM

Structure (SMILES): CCN(CCO)c1nc(NCc2ccc(S(N)(=O)=O)cc2)c2c(-c3ccccc3)csc2n1 [Example 1.52, 4-((2-(N-Ethyl-N-(2-hydroxyethyl)amino)-5-phenylthieno[2,3-d]pyrimidin-4-yl)aminomethyl)-benzenesulfonamide]
- IC50 (human ENPP1): < 0.1 µM
- IC50 (ENPP3): 0.1 to 1 µM

Structure (SMILES): CCN(c1nc(NCc2ccc(S(N)(=O)=O)cc2)c2c(-c3ccccc3)csc2n1)C(C)(C)CO [Example 1.53, 4-((2-(N-Ethyl-N-(1-hydroxy-2-methylpropan-2-yl)amino)-5-phenylthieno[2,3-d]pyrimidin-4-yl)aminomethyl)benzenesulfonamide]
- IC50 (human ENPP1): 0.1 to 1 µM
- IC50 (ENPP3): 0.1 to 1 µM

Structure (SMILES): COCCNc1nc(NCc2ccc(S(N)(=O)=O)cc2)c2c(-c3ccccc3)csc2n1 [Example 1.54, 4-((2-(2-Methoxyethyl)amino-5-phenylthieno[2,3-d]pyrimidin-4-yl)aminomethyl)-benzenesulfonamide]
- IC50 (human ENPP1): < 0.1 µM
- IC50 (ENPP3): < 0.1 µM
